Results on 24 substances are retold here after patent US20060293223A1 (Eli Lilly and Company Patent Division, priority 2003, published 2006).

In this test the test system is MC1/MC4. The conditions noted are these: ratio MC1/MC4.
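Also: ratio of EC50 values obtained at MC1 versus MC4 receptors, with MC1 potency measured by luciferase reporter activity in stably transfected cells expressing human MC1.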

For the substance “Ac-Tyr-Arg-cyclo[Cys-Glu-(2-pyrazine-Ala)-D-Phe-Arg-Trp-Cys]-NH2 [Compound 105]”, the MC1/MC4 selectivity is 24.04.
As for “Ac-Tyr-Arg-cyclo[Cys-Glu-(3-Me-His)-D-Phe-Arg-Trp-Cys]-NH2 [Compound 96]”, the MC1/MC4 selectivity amounted to 20.87.
Regarding “Ac-Tyr-Arg-cyclo[Cys-Glu-(4-phenyl-1H-imidazol-2-yl-Ala)-D-Phe-Arg-Trp-Cys]-NH2 [Compound 103]”, the MC1/MC4 selectivity is 75.59.
The result for “Ac-Tyr-Arg-cyclo[Cys-Glu-(4-phenyl-1H-imidazol-2-yl-D-Ala)-D-Phe-Arg-Trp-Cys]-NH2 [Compound 104]” reads 3.68.
For the substance “Ac-Tyr-Arg-cyclo[Cys-Glu-(5-Me-D-His)-D-Phe-Arg-Trp-Cys]-NH2 [Compound 98]”, the MC1/MC4 selectivity is listed as 7.43.
As to “Ac-Tyr-Arg-cyclo[Cys-Glu-(5-Me-His)-D-Phe-Arg-Trp-Cys]-NH2 [Compound 97]”, the MC1/MC4 selectivity was 8.03.
The figure for “Ac-Tyr-Arg-cyclo[Cys-Glu-(β-(1,2,4-triazol-3-yl))-Ala)-D-Phe-Arg-Trp-Cys]-NH2 [Compound 106]” is 23.95; for “Ac-Tyr-Arg-cyclo[Cys-Glu-(β-(1,2,4-triazol-3-yl))-D-Ala)-D-Phe-Arg-Trp-Cys]-NH2 [Compound 107]” it is 1.00.
On to “Ac-Tyr-Arg-cyclo[Cys-Glu-(β-(1,3-thiazol-4-yl)-Ala)-D-Phe-Arg-Trp-Cys]-NH2 [Compound 112]”, for which the MC1/MC4 selectivity was found to be 5.62.
As to “Ac-Tyr-Arg-cyclo[Cys-Glu-(β-(2-furyl)-Ala)-D-Phe-Arg-Trp-Cys]-NH2 [Compound 110]”, the MC1/MC4 selectivity turned out to be 4.27.
Turning to “Ac-Tyr-Arg-cyclo[Cys-Glu-(β-((1-benzyl)-1,2,4-triazol-3-yl))-D-Ala)-D-Phe-Arg-Trp-Cys]-NH2 [Compound 108]”, the MC1/MC4 selectivity was 5.99.
The figure for “Ac-Tyr-Arg-cyclo[Cys-Glu-(β-((1-benzyl)-1,2,4-triazol-3-yl))-D-Ala)-D-Phe-Arg-Trp-Cys]-NH2 [Compound 109]” is 6.05; for “Ac-Tyr-Arg-cyclo[Cys-Glu-(β-(pyridin-4-yl)-Ala)-D-Phe-Arg-Trp-Cys]-NH2 [Compound 113]” it is 13.51; for “Ac-Tyr-Arg-cyclo[Cys-Glu-(β-(thien-2-yl)-Ala)-D-Phe-Arg-Trp-Cys]-NH2 [Compound 111]” it is 7.67.
“Ac-Tyr-Arg-cyclo[Cys-Glu-His-(4-Br-D-Phe)-Arg-Trp-Cys]-NH2 [Compound 89]”: the MC1/MC4 selectivity is given as 71.43.
With “Ac-Tyr-Arg-cyclo[Cys-Glu-His-(4-Cl-D-Phe)-Arg-Trp-Cys]-NH2 [Compound 86]”, the MC1/MC4 selectivity was found to be 66.21.
Turning to “Ac-Tyr-Arg-cyclo[Cys-Glu-His-(4-F-D-Phe)-Arg-Trp-Cys]-NH2 [Compound 83]”, the MC1/MC4 selectivity was found to be 45.95.
As to “Ac-Tyr-Arg-cyclo[Cys-Glu-His-(4-Me-D-Phe)-Arg-Trp-Cys]-NH2 [Compound 92]”, the MC1/MC4 selectivity amounted to 12.06.
Turning to “Ac-Tyr-Arg-cyclo[Cys-Glu-His-(4-OMe-D-Phe)-Arg-Trp-Cys]-NH2 [Compound 93]”, the MC1/MC4 selectivity was 1.48.
With “Ac-Tyr-Arg-cyclo[Cys-Glu-His-D-Phe-Arg-Trp-Cys] alcohol [Compound 78]”, the MC1/MC4 selectivity is reported as 9.00.
The figure for “Ac-Tyr-Arg-cyclo[Cys-Glu-His-D-Phe-Arg-Trp-Cys]-2-(2-aminoethoxy)ethanol [Compound 115]” is 2.00; for “Ac-Tyr-Arg-cyclo[Cys-Glu-His-D-Phe-Arg-Trp-Cys]-Lys-Pro alcohol [Compound 122]” it is 0.90.
Consider “Ac-Tyr-Arg-cyclo[Cys-Glu-His-D-Phe-Arg-Trp-Cys]-NH2 [Compound 72]”, for which the MC1/MC4 selectivity came out at 22.31.
As for “Ac-Tyr-Arg-cyclo[Cys-Glu-His-D-Phe-Arg-Trp-Cys]-NH-(CH2)6-NH2 [Compound 117]”, the MC1/MC4 selectivity came to 1.00.
